Publication PMC11249646, “Small-Molecule Disruptors of the Interaction between Calcium- and Integrin-Binding Protein 1 and Integrin αIIbβ3 as Novel Antiplatelet Agents” (ACS Pharmacology & Translational Science, 2024)
Read-outs that look alike come from different tables or passages of the source. Each block holds one compound with its values, some of them ahead of it.

Experiments:
[1] = target: T1, CIB1 and αIIb interaction (CIB1-GST : F-αIIb peptide) (Homo sapiens, UniProt Q99828); experiment: FP assay, 1536-well qHTS format (primary and confirmatory screen); type: binding; conditions: for CONFIRMATORY SCREEN Curve Class / Curve Class (confirmatory screen): qHTS curve class
T1 construct: made in house; host or cells: BL-21 plus RIL cells (E. coli)
T1 sequence (Q99828 1-191): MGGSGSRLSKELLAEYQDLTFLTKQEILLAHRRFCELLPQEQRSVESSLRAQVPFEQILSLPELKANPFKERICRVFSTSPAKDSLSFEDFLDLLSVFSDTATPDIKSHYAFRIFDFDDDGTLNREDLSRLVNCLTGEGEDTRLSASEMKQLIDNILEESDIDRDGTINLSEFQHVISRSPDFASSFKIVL

[2] = target: T2, GST-CIB1 : F-scrambled peptide (Homo sapiens, UniProt Q99828); experiment: FP scrambled-peptide counter screen, 1536-well format; type: binding; conditions: for COUNTERSCREEN Curve Class / Curve Class (counterscreen): qHTS curve class
T2 construct: made in house; host or cells: BL-21 plus RIL cells (E. coli)
T2 sequence (Q99828 1-191): T1 sequence (Q99828 1-191)

[3] = confirmatory screen, negative sign = inhibitory curve
[4] = qHTS FP screen hits, Table S2, negative = inhibition
[5] = qHTS FP screen hits, Table S2, read-out: IC50
[6] = scrambled-peptide counterscreen
[7] = confirmatory screen, read-out: IC50 [μM] (confirmatory screen)
[8] = qHTS primary screen hits, Table S2, negative = inhibition
[9] = qHTS primary screen hits, Table S2, negative sign = inhibitory curve, several classes where COUNT > 1
[10] = qHTS primary screen hits, Table S2, read-out: IC50
[11] = counterscreen, negative sign = inhibitory curve
[12] = counterscreen, read-out: IC50 [μM] (counterscreen)
[13] = Table S3, confirmatory screen, a negative sign marks inhibitory curves
[14] = Table S3, confirmatory screen, negative = inhibition
[15] = qHTS FP screen hits, Table S2, one class per curve where COUNT > 1, negative sign = inhibitory curve
[16] = Table S3, counterscreen, a negative sign marks inhibitory curves
[17] = Table S3, counterscreen, negative = inhibition
[18] = Table S3, counterscreen, read-out: IC50 [μM] (counterscreen)

SMILES: CC(C)NC(=S)N/N=C1\C(=O)Nc2ccccc21.O=C(O)C(F)(F)F [NCGC00229535-01]
- CONFIRMATORY SCREEN Confirm? ([1]; confirmatory screen, YES/NO call): YES
- CONFIRMATORY SCREEN Curve Class [1, 3]: -1.4
- CONFIRMATORY SCREEN Efficacy (%) ([1]; confirmatory screen, negative = inhibition): -48%
- IC50 ([1]; confirmatory screen, read-out: CONFIRMATORY SCREEN IC50): 2.8 µM
- Efficacy (%) [1, 4]: -24%
- IC50 [1, 5]: 12.6 µM
- COUNTERSCREEN Efficacy (%) [2, 6]: -45%
- COUNTERSCREEN Confirm? ([2]; scrambled-peptide counterscreen, YES/NO call): YES
- COUNTERSCREEN Curve Class [2, 6]: -1.2
- IC50 ([2]; scrambled-peptide counterscreen, read-out: COUNTERSCREEN IC50): 11.2 µM

SMILES: Cc1cnc(-c2ccccc2C(C)C)nc1NCc1ccc(-c2ccc(F)nc2)cc1.O=C(O)C(F)(F)F [NCGC00253893-01]
- Efficacy (%) (confirmatory screen) ([1]; confirmatory screen): -124%
- Confirm? (confirmatory screen) ([1]; confirmatory screen, YES/NO): YES
- Curve Class (confirmatory screen) [1, 3]: -2.1
- IC50 [1, 7]: 112 µM
- Efficacy (%) [1, 8]: -52%
- Curve Class [1, 9]: -2.4
- IC50 [1, 10]: 50.1 µM
- Efficacy (%) (counterscreen) ([2]; counterscreen): -90%
- Curve Class (counterscreen) [2, 11]: -2.1
- IC50 [2, 12]: 44.7 µM

SMILES: C=C1C(=O)[C@@]23C(CC[C@@H]1[C@H]2O)[C@@]12CO[C@]3(O)[C@@H](O)[C@@H]1C(C)(C)CC[C@@H]2O (stereo partly drawn) [NCGC00346595-02]
- Efficacy (%) (confirmatory screen) ([1]; confirmatory screen): -89%
- Confirm? (confirmatory screen) ([1]; confirmatory screen, YES/NO): YES
- Curve Class (confirmatory screen) [1, 3]: -1.1
- IC50 [1, 7]: 25.1 µM
- Efficacy (%) (counterscreen) ([2]; counterscreen): -60%
- Curve Class (counterscreen) [2, 11]: -1.2
- IC50 [2, 12]: 15.8 µM

SMILES: CN(C(=O)CN(CCO)CC(=O)N(C)C(C)(C)Cc1ccccc1)C(C)(C)Cc1ccccc1 [NCGC00016382-07]
- Efficacy (%) (confirmatory screen) ([1]; confirmatory screen): -52%
- Confirm? (confirmatory screen) ([1]; confirmatory screen, YES/NO): YES
- Curve Class (confirmatory screen) [1, 3]: -3
- IC50 [1, 7]: 79.4 µM
- Efficacy (%) [1, 4]: -59%
- Curve Class [1, 15]: -3
- IC50 [1, 5]: 28.2 µM
- Efficacy (%) (counterscreen) ([2]; counterscreen): -33%
- Curve Class (counterscreen) [2, 11]: -2.4
- IC50 [2, 12]: 70.8 µM

SMILES: C[n+]1cc2c3c(ccc2c2ccc4cc5c(cc4c21)OCO5)OCO3.[Cl-] [NCGC00015959-09]
- Curve Class (confirmatory screen) [1, 13]: 4
- Efficacy (%) (confirmatory screen) [1, 14]: 0%
- Efficacy (%) [1, 8]: -124%
- Curve Class ([1]; qHTS primary screen hits, Table S2, negative sign = inhibitory curve): -1.1
- IC50 [1, 10]: 14.1 µM
- Curve Class (counterscreen) [2, 16]: 4
- Efficacy (%) (counterscreen) [2, 17]: 0%

SMILES: CO[C@H](C(=O)[C@@H](O)[C@@H](C)O)[C@@H]1Cc2cc3cc(C[C@H]4C[C@H](O[C@H]5C[C@@H](O)[C@H](O)[C@@H](C)O5)[C@@H](O)[C@@H](C)O4)c(C)c(O)c3c(O)c2C(=O)[C@H]1O[C@@H]1C[C@H](O[C@@H]2C[C@H](O[C@@H]3C[C@](O)(CO)[C@@H](O)[C@H](C)O3)[C@@H](O)[C@H](C)O2)[C@@H](O)[C@H](C)O1 [NCGC00162423-04]
- Confirm? (confirmatory screen) ([1]; Table S3, confirmatory screen, YES/NO call): YES
- Curve Class (confirmatory screen) [1, 13]: -2.1
- Efficacy (%) (confirmatory screen) [1, 14]: -183%
- IC50 ([1]; Table S3, confirmatory screen, read-out: IC50 [μM] (confirmatory screen)): 31.6 µM
- Efficacy (%) [1, 8]: -51%
- Curve Class [1, 9]: -2.2
- IC50 [1, 10]: 24.1 µM
- Curve Class (counterscreen) [2, 16]: -1.1
- Efficacy (%) (counterscreen) [2, 17]: -181%
- IC50 [2, 18]: 15.8 µM

SMILES: O=C([O-])c1c(Cl)c(Cl)c(Cl)c(Cl)c1-c1c2cc(I)c(=O)c(I)c-2oc2c(I)c(O)c(I)cc12.[Na+] [NCGC00159508-05]
- Efficacy (%) (confirmatory screen) [1, 14]: 261%
- Efficacy (%) [1, 8]: -26%
- Curve Class [1, 9]: -2.4
- IC50 [1, 10]: 13.6 µM
- Efficacy (%) (counterscreen) [2, 17]: 311%
- IC50 [2, 18]: 44.7 µM

SMILES: CC1(C)N=C(Nc2nc3ccccc3o2)NC2=C1C(=O)CCC2.O=C(O)C(F)(F)F [NCGC00187643-01]
- CONFIRMATORY SCREEN Efficacy (%) ([1]; confirmatory screen): -26%
- CONFIRMATORY SCREEN Curve Class ([1]; confirmatory screen): 4
- Efficacy (%) [1, 8]: -35%
- Curve Class [1, 9]: -2.2
- IC50 [1, 10]: 20 µM
- COUNTERSCREEN Efficacy (%) ([2]; counterscreen): -12%
- COUNTERSCREEN Curve Class ([2]; counterscreen): 4

Further lines, results first:

- Curve Class (confirmatory screen) [1, 13]: 4
- Efficacy (%) (confirmatory screen) [1, 14]: -22%
- Efficacy (%) [1, 4]: -79%
- Curve Class [1, 15]: -2.2
- IC50 [1, 5]: 79.4 µM
- Curve Class (counterscreen) [2, 16]: 4
- Efficacy (%) (counterscreen) [2, 17]: 0%
SMILES: CC[C@@H](c1ccc(F)c(F)c1)n1c(C(=O)OC)c(-c2ccno2)[nH]c1=S [NCGC00387465-01]

- CONFIRMATORY SCREEN Efficacy (%) ([1]; confirmatory screen): -19%
- CONFIRMATORY SCREEN Curve Class ([1]; confirmatory screen): 4
- Efficacy (%) [1, 8]: -33%
- Curve Class [1, 9]: -1.4
- IC50 [1, 10]: 11.2 µM
- COUNTERSCREEN Efficacy (%) ([2]; counterscreen): 0%
- COUNTERSCREEN Curve Class ([2]; counterscreen): 4
SMILES: Cl.O=S(=O)(Nc1nccs1)c1ccc(NCc2cc(Cl)cc(Br)c2O)cc1 [NCGC00273965-01]

- CONFIRMATORY SCREEN Efficacy (%) ([1]; confirmatory screen): -21%
- CONFIRMATORY SCREEN Curve Class ([1]; confirmatory screen): 4
- Efficacy (%) [1, 4]: -29%
- Curve Class [1, 15]: -1.2
- IC50 [1, 5]: 25.1 µM
- COUNTERSCREEN Efficacy (%) ([2]; counterscreen): -31%
- COUNTERSCREEN Curve Class ([2]; counterscreen): 4
SMILES: O=C(c1ccccc1)c1c(O)cc(O)cc1O[C@@H]1O[C@H](CO)[C@@H](O)[C@H](O)[C@H]1O [NCGC00384934-01]

- CONFIRMATORY SCREEN Efficacy (%) ([1]; confirmatory screen): -10%
- CONFIRMATORY SCREEN Curve Class ([1]; confirmatory screen): 4
- Efficacy (%) [1, 8]: -23%
- Curve Class [1, 9]: -2.4
- IC50 [1, 10]: 39.8 µM
- COUNTERSCREEN Efficacy (%) ([2]; counterscreen): -33%
- COUNTERSCREEN Curve Class ([2]; counterscreen): 4
SMILES: CCN1C(=O)c2ccccc2[S+]([O-])c2ccc(C(=O)Nc3ncc(C)s3)cc21 (stereo not drawn) [NCGC00241655-01]

- CONFIRMATORY SCREEN Efficacy (%) ([1]; confirmatory screen): 0%
- CONFIRMATORY SCREEN Curve Class ([1]; confirmatory screen): 4
- Efficacy (%) [1, 8]: -43%
- Curve Class [1, 9]: -2.4
- IC50 [1, 10]: 39.8 µM
- COUNTERSCREEN Efficacy (%) ([2]; counterscreen): -12%
- COUNTERSCREEN Curve Class ([2]; counterscreen): 4
SMILES: CN1CCC(N(Cc2cccs2)c2ccccc2)CC1 [NCGC00183847-01]

- Efficacy (%) (confirmatory screen) ([1]; confirmatory screen): -68%
- Confirm? (confirmatory screen) ([1]; confirmatory screen, YES/NO): YES
- Curve Class (confirmatory screen) [1, 3]: -2.2
- Efficacy (%) [1, 4]: -42%
- Curve Class [1, 15]: -2.2
- IC50 [1, 5]: 44.7 µM
- Efficacy (%) (counterscreen) ([2]; counterscreen): -55%
- Curve Class (counterscreen) [2, 11]: -2.2
- IC50 [2, 12]: 39.8 µM
SMILES: CC1(C)C=CN2C(=O)C3=CCCN3C(=O)[C@@H]2C[C@@]12Nc1ccccc1C2=O [NCGC00380729-01]
